Measured values from patent US20110190137A1, “METHOD TO INHIBIT ETHYLENE RESPONSES IN PLANTS” (priority 2003, published 2011).

Experiments:
[1] = tested on: ethylene-induced epinasty in Patio variety tomato plants; test: Tomato epinasty test, spray application treatment; type: in vivo; settings: for Spray @10 ppm: visual rating of protection against ethylene-induced epinasty: spray 10 ppm in 10% acetone/90% water, 0.05% Silwett L-77, 10 ppm ethylene, scale 0 to 10 (10 = complete protection); for Spray @ 1000 ppm: rating of protection against epinasty: spray 1000 ppm (in cell), scale 0 to 10
Protocol: (§1) Objective: The test procedure is designed to determine the ability of an experimental compound to block the epinastic growth response induced by ethylene in tomato plants when the experimental compound is administered either as a volatile gas or as a component of a spray solution.
(§2) Treatment chambers are of an appropriate size for the test plants and are airtight. Each is fitted with a reusable septum to be used for injection of ethylene. Test plants are Patio variety tomato seedlings planted two plants per three inch square plastic pot.
Spray application treatment entails using a DeVilbiss atomizer to completely cover all foliage and stems of two pots of Patio var. tomato plants with the appropriate amount of experimental compound dissolved in 10% acetone/90% water with 0.05% Silwett L-77 surfactant. Plants are air-dried in a drying hood for four hours then transferred to a 4.8 L polystyrene chamber which is sealed.
Ethylene gas equal to 10 ppm v/v final concentration is injected into the sealed chamber. Sixteen hours later the chambers are opened in an exhaust hood, allowed to air and the plants scored visually for the degree of protection against ethylene-induced epinasty conferred by the experimental compound when compared to ethylene treated and untreated controls on a scale of 0 to 10. A rating of 10 means complete protection. A rating of 0 means no protection from the effects of ethylene.

[2] = tested on: ethylene-induced epinasty in Patio variety tomato plants; test: Tomato epinasty test, volatile gas treatment; type: in vivo; settings: for Gas @ 10 ppm: visual rating of protection against ethylene-induced epinasty: gas 10 ppm v/v, 10 ppm ethylene, scale 0 to 10 (10 = complete protection); for Gas @ 1000 ppm: visual rating of protection against ethylene-induced epinasty: gas 1000 ppm v/v, 10 ppm ethylene after 4 h, scored 16 h later, scale 0 (no protection) to 10 (complete protection); for Gas @ 343.4 ppm: rating of protection against epinasty: gas 343.4 ppm (in cell)
Protocol: as §1, §2
Volatile gas treatment entails placing two pots of Patio var. tomatoes into a polystyrene 4.8 L volume treatment chamber along with one-half (upper or lower section) of a 50×9 mm plastic Petri dish containing a Gelman filter pad. The appropriate amount of experimental compound, dissolved in 1.0 ml acetone, is pipetted onto the filter pad and the chamber immediately sealed. Four hours later ethylene gas equal to 10 ppm v/v final concentration is injected into the sealed chamber. Sixteen hours later the chambers are opened in an exhaust hood, allowed to air and the plants scored visually for the degree of protection against ethylene-induced epinasty conferred by the experimental compound when compared to ethylene treated and untreated controls on a scale of 0 to 10. A rating of 10 means complete protection. A rating of 0 means no protection from the effects of ethylene. Gas treatment concentrations are volume/volume.

SMILES | Spray @10 ppm: visual rating of protection against ethylene-induced epinasty [1] | Gas @ 10 ppm: visual rating of protection against ethylene-induced epinasty [2] | Gas @ 1000 ppm: visual rating of protection against ethylene-induced epinasty [2] | also measured
O=C(O)CC1(c2ccccc2)C(c2ccccc2)=C1c1ccccc1 [Compound 40, 3-Hydroxycarbonylmethyl-1,2,3-triphenylcyclopropene] | 0 | 7 | – | –
ClC1=C(c2ccccc2)C1(Cl)Cl [Compound 41, 1-Phenyl-2,3,3-trichlorocyclopropene] | 0 | 0 | 2 | –
Cc1cc(C)nc(CCC2=CC2)n1 [Compound 42] | 2 | – | – | Gas @ 343.4 ppm: rating of protection against epinasty ([2]; scale 0 to 10): 3(@ 343.4
C1=C(CCSc2ccncc2)C1 [Compound 43] | 0 | 10 | – | –
Cc1ccc(C(=O)OCCCCC2=CC2)cc1 [Compound 44, 1-(4-Methylphenylcarbonyloxybutyl)-cyclopropene] | 0 | 0 | 7 | –
BrC1=C(Cc2ccccc2)C1 [Compound 45, 1-Benzyl-2-bromocyclopropene] | 0 | 5 | 10 | –
ClC1=C(Cc2ccccc2)C1 [Compound 46, 1-Benzyl-2-chlorocyclopropene] | 0 | 5 | 10 | –
O=C(OCC1=CC1)c1ccco1 [Compound 47] | 0 | 0 | – | Gas @ 551 ppm: rating of protection against epinasty ([2]; gas 551 ppm (in cell), scale 0 to 10): 10(@551
O=C(OCCC1=CC1)c1cc2ccccc2o1 [Compound 49] | 0 | 0 | – | Gas @ 343.4 ppm: rating of protection against epinasty ([2]; scale 0 to 10): 9(@343.4
O=C(OCCC1=CC1)c1cnc(Cl)c(Cl)c1 [Compound 50] | 0 | 0 | 9 | –
Cc1nnsc1C(=O)OCCC1=CC1 [Compound 51] | 0 | 0 | 3 | Spray @ 1000 ppm: rating of protection against epinasty [1]: 8
CC(C)(C)OC(=O)N1CC(C(=O)OCCC2=CC2)CS1 (stereo not drawn) [Compound 52] | 2 | 0 | 3 | Spray @ 1000 ppm: rating of protection against epinasty [1]: 10
CS(=O)(=O)Oc1ccc(C(=O)OCCCCCCCC2=CC2)cc1 [Compound 53, 1-(7-(4-Methanesulfonyloxyphenyl)-carbonyloxyheptyl)-cyclopropene] | 0 | 0 | 10 | –
O=C(OCCCCCCCC1=CC1)C1CCCO1 (stereo not drawn) [Compound 54] | 0 | 0 | 2 | –
C1=C(CCCSc2ccccn2)C1 [Compound 55, 1-(2-Pyridylthiopropyl)-cyclopropene] | 3 | – | – | Gas @ 800 ppm: rating of protection against epinasty ([2]; gas 800 ppm (in cell), scale 0 to 10): 10(@800
O=S(=O)(OCCCCCCCCC1=CC1)c1ccccc1 [Compound 56, 1-(8-Benzenesulfonyloxyoctyl)-cyclopropene] | 10 | 5 | – | –
Cc1ccc(SCCCCCCCCC2=CC2)cc1 [Compound 57, 1-(4-Methylphenylthiooctyl)-cyclopropene] | 2 | 0 | 10 | –
CCC1=C(n2nc(-c3ccc(Cl)cc3)ccc2=O)C1 [Compound 60, 1-Ethyl-2-(3-(4-chlorophenol)-pyridaz-6-on-1-yl)-cyclopropene] | 0 | 4 | 0 | –

SMILES | Spray @10 ppm: visual rating of protection against ethylene-induced epinasty [1] | Gas @ 10 ppm: visual rating of protection against ethylene-induced epinasty [2] | Gas @ 1000 ppm: visual rating of protection against ethylene-induced epinasty [2] | also measured
O=C(OCCCC1=CC1)c1cnccn1 [Compound 61] | 0 | 0 | – | Gas @ 438 ppm: rating of protection against epinasty ([2]; gas 438 ppm (in cell), scale 0 to 10): 10(@438
O=C(OCCC1=CC1)c1ccc(-n2cccc2)cc1 [Compound 62] | 0 | 0 | – | Gas @ 509 ppm: rating of protection against epinasty ([2]; gas 509 ppm (in cell), scale 0 to 10): 10(@509
CC[Si](CC)(CC)CC1=CC1 [Compound 63, 1-Triethylsilylmethylcyclopropene] | 10 | 10 | – | –
C[Si](C)(C)CC1=CC1 [Compound 64, 1-Trimethylsilylmethylcyclopropene] | 9 | 10 | – | –
C[Si](C)(C)CCCCCCC1C=C1 [Compound 65, 6-(Trimethylsilyl)-hexylcycloprop-2-ene] | 6 | 10 | – | –
C[Si](C)(C)CCC1C=C1 [Compound 66, 2-(Trimethylsilyl)-ethylcycloprop-2-ene] | 10 | 10 | – | –
CCCCCCCCC1=C([Si](C)(C)C)C1 [Compound 67, 2-Octyl-1-trimethylsilylcyclopropene] | 3 | 6 | – | –
CS(=O)(=O)OCCC1=CC1 [Compound 68, 1-(2-Methanesulfonyloxyethyl)-cyclopropene] | 5 | 3 | 10 | –
CS(=O)(=O)OCCCCCCCC1=CC1 [Compound 69, 1-(7-Methanesulfonyloxyheptyl)-cyclopropene] | 0 | 0 | 8 | –
CCSCCCCCCCC1=CC1 [Compound 70, 1-(7-Ethanethioheptyl)-cyclopropene] | 10 | 2 | – | –
CCCCCCCCC1=C(Br)C1 [Compound 71, 1-Bromo-2-octyl-cyclopropene] | 3 | 1 | 10 | –
CCCCCC1(C)C=C1 [Compound 72, 3-Methyl-3-pentyl-cyclopropene] | 2 | 0 | 9 | –
CCCCCCCCCC1(C)C=C1 [Compound 73, 3-Methyl-3-nonyl-cyclopropene] | 0 | 0 | 8 | –
CCCCCCCC1=C(C)C1 [Compound 74, 1-Heptyl-2-methyl-cyclopropene] | 0 | 0 | 10 | –
CC(=O)OCOC(=O)CCC1=C(Br)C1 [Compound 75] | 0 | 10 | – | –
CCOC(=O)CCC1=C(Br)C1 [Compound 76] | 0 | 10 | – | –
O=C(O)CCC1=C(Br)C1 [Compound 77] | 2 | 8 | – | –
